Key:
[1] = excess molar enthalpy (molar enthalpy of mixing); xn = mol fraction of the nth substance listed; conditions: 308.15 K, 101 kPa, Liquid, Calvet calorimetry
[2] = xn = mol fraction of the nth substance listed; conditions: 308.15 K, 101 kPa, Liquid; for excess molar volume: Direct dilatometry; for speed of sound: Linear variable-path acoustic interferometer

C1CCOCC1 [tetrahydropyran] + C1CCCCC1
Conditions	excess molar enthalpy [kcal/mol]	excess molar volume [m3/mol]	speed of sound [m/s]
[1], x1 = 0.0634	0.0319	–	–
[1], x1 = 0.1146	0.0546	–	–
[1], x1 = 0.2073	0.088	–	–
[1], x1 = 0.2734	0.106	–	–
[1], x1 = 0.3379	0.118	–	–
[1], x1 = 0.3805	0.123	–	–
[1], x1 = 0.4339	0.127	–	–
[1], x1 = 0.5322	0.126	–	–
[1], x1 = 0.6045	0.118	–	–
[1], x1 = 0.6848	0.103	–	–
[1], x1 = 0.7529	0.0864	–	–
[1], x1 = 0.7939	0.0744	–	–
[1], x1 = 0.8564	0.054	–	–
[1], x1 = 0.8976	0.0394	–	–
[2], x1 = 0.0648	–	9.1e-08	–
[2], x1 = 0.0785	–	–	1209
[2], x1 = 0.1372	–	1.72e-07	–
[2], x1 = 0.161	–	–	1205
[2], x1 = 0.1954	–	2.24e-07	–
[2], x1 = 0.1965	–	–	1204
[2], x1 = 0.2351	–	2.53e-07	–
[2], x1 = 0.2477	–	–	1202
[2], x1 = 0.303	–	2.9e-07	–
[2], x1 = 0.3378	–	–	1200
[2], x1 = 0.3575	–	3.1e-07	–
[2], x1 = 0.3879	–	–	1199
[2], x1 = 0.433	–	–	1199
[2], x1 = 0.4351	–	3.23e-07	–
[2], x1 = 0.4712	–	–	1199
[2], x1 = 0.4911	–	3.22e-07	–
[2], x1 = 0.5344	–	–	1200
[2], x1 = 0.5412	–	3.14e-07	–
[2], x1 = 0.5988	–	–	1202
[2], x1 = 0.6421	–	–	1203
[2], x1 = 0.6536	–	2.76e-07	–
[2], x1 = 0.721	–	2.4e-07	–
[2], x1 = 0.7533	–	–	1209
[2], x1 = 0.7952	–	1.9e-07	–
[2], x1 = 0.8066	–	–	1212
[2], x1 = 0.8827	–	1.17e-07	–
[2], x1 = 0.9325	–	7e-08	–

C1CCOCC1 [tetrahydropyran] + CCCCCCC
Conditions	excess molar enthalpy [kcal/mol]	excess molar volume [m3/mol]	speed of sound [m/s]
[1], x1 = 0.0842	0.0387	–	–
[1], x1 = 0.1777	0.0796	–	–
[1], x1 = 0.2324	0.101	–	–
[1], x1 = 0.3339	0.132	–	–
[1], x1 = 0.3741	0.141	–	–
[1], x1 = 0.4413	0.15	–	–
[1], x1 = 0.5008	0.153	–	–
[1], x1 = 0.5989	0.147	–	–
[1], x1 = 0.6821	0.13	–	–
[1], x1 = 0.7124	0.122	–	–
[1], x1 = 0.7654	0.104	–	–
[1], x1 = 0.8325	0.0779	–	–
[1], x1 = 0.8778	0.0581	–	–
[1], x1 = 0.9213	0.0379	–	–
[2], x1 = 0.0543	–	5.7e-08	–
[2], x1 = 0.0833	–	–	1100
[2], x1 = 0.113	–	1.11e-07	–
[2], x1 = 0.1323	–	–	1107
[2], x1 = 0.1977	–	–	1117
[2], x1 = 0.2031	–	1.77e-07	–
[2], x1 = 0.2396	–	–	1127
[2], x1 = 0.2613	–	2.1e-07	–
[2], x1 = 0.2998	–	2.28e-07	–
[2], x1 = 0.3245	–	–	1137
[2], x1 = 0.3475	–	2.45e-07	–
[2], x1 = 0.3812	–	–	1145
[2], x1 = 0.3991	–	2.58e-07	–
[2], x1 = 0.4396	–	–	1154
[2], x1 = 0.4441	–	2.65e-07	–
[2], x1 = 0.4964	–	2.68e-07	–
[2], x1 = 0.5033	–	–	1163
[2], x1 = 0.5601	–	2.64e-07	–
[2], x1 = 0.5684	–	–	1172
[2], x1 = 0.6107	–	2.55e-07	–
[2], x1 = 0.6161	–	–	1178
[2], x1 = 0.688	–	–	1187
[2], x1 = 0.7123	–	2.2e-07	–
[2], x1 = 0.7646	–	–	1197
[2], x1 = 0.8011	–	1.72e-07	–
[2], x1 = 0.8223	–	–	1204
[2], x1 = 0.8999	–	9.8e-08	–
[2], x1 = 0.9044	–	–	1213

C1CCOCC1 [tetrahydropyran] + CCCCCC
Conditions	excess molar enthalpy [kcal/mol]	excess molar volume [m3/mol]	speed of sound [m/s]
[1], x1 = 0.0581	0.0246	–	–
[1], x1 = 0.1073	0.044	–	–
[1], x1 = 0.1962	0.075	–	–
[1], x1 = 0.2274	0.0844	–	–
[1], x1 = 0.3276	0.109	–	–
[1], x1 = 0.3888	0.12	–	–
[1], x1 = 0.4395	0.126	–	–
[1], x1 = 0.4968	0.13	–	–
[1], x1 = 0.522	0.131	–	–
[1], x1 = 0.5931	0.129	–	–
[1], x1 = 0.6634	0.121	–	–
[1], x1 = 0.7514	0.103	–	–
[1], x1 = 0.8124	0.0849	–	–
[1], x1 = 0.8997	0.0509	–	–
[2], x1 = 0.0328	–	1.4e-08	–
[2], x1 = 0.0459	–	1.9e-08	–
[2], x1 = 0.0694	–	2.7e-08	–
[2], x1 = 0.0785	–	3e-08	–
[2], x1 = 0.0981	–	–	1054
[2], x1 = 0.1294	–	4.4e-08	–
[2], x1 = 0.1561	–	4.9e-08	–
[2], x1 = 0.1578	–	–	1067
[2], x1 = 0.1965	–	–	1075
[2], x1 = 0.2753	–	6.4e-08	–
[2], x1 = 0.2955	–	–	1093
[2], x1 = 0.3262	–	6.6e-08	–
[2], x1 = 0.3313	–	–	1099
[2], x1 = 0.3955	–	–	1110
[2], x1 = 0.4469	–	–	1118
[2], x1 = 0.4629	–	6.2e-08	–
[2], x1 = 0.4947	–	–	1126
[2], x1 = 0.515	–	5.8e-08	–
[2], x1 = 0.5211	–	–	1130
[2], x1 = 0.5955	–	–	1143
[2], x1 = 0.6692	–	4.2e-08	–
[2], x1 = 0.6955	–	–	1161
[2], x1 = 0.7311	–	–	1168
[2], x1 = 0.7837	–	2.8e-08	–
[2], x1 = 0.7965	–	–	1181
[2], x1 = 0.8461	–	2e-08	–
[2], x1 = 0.8992	–	–	1203
[2], x1 = 0.9239	–	1e-08	–

— the NIST ThermoML archive (doi:10.1016/j.tca.2010.03.028)
